# Measured values taken from ChEMBL document CHEMBL6092186, “Semisynthetic Ecdysteroid Cinnamate Esters and tert-Butyl Oxime Ether Derivatives with Trypanocidal Activity” (J Nat Prod, 2024).
# pIC50: −log10 of the molar value. Calls of active or inactive are those of the source. The calls are words filed in the database; no cut-off is given here.
# Tests used:
# CHO = assay: Cytotoxicity against CHO cells at 5 uM incubated for 72 hrs by MTT assay; type: toxicity, cell-based, Cricetulus griseus; conditions: chinese hamster
# Trypanosoma cruzi [1] = assay: Anti-trypanosomal activity against Trypanosoma cruzi epimastigotes assessed as inhibition of parasitic proliferation at 5 uM incubated for 72 hrs by XTT assay relative to control; type: functional
# Trypanosoma = assay: Anti-trypanosomal activity against Trypanosoma; type: functional, organism-based
# Trypanosoma cruzi [2] = assay: Trypanocidal activity against Trypanosoma cruzi epimastigotes incubated for 24 hrs by Neubauer chamber method; type: functional, organism-based
structure (smiles),measurement,setting,value
CC(C)(O)CC[C@H]1OC(C)(C)O[C@]1(C)[C@H]1CC=C2C3=C/C(=N/OC(C)(C)C)[C@@H]4C[C@H]5OC(C)(C)O[C@H]5C[C@]4(C)[C@H]3CC[C@@]21C,Activity,CHO,Non-toxic
CC(C)(O)CC[C@@H](O)[C@](C)(O)[C@H]1CC=C2C3=C/C(=N\OC(C)(C)C)[C@@H]4C[C@@H](O)[C@@H](O)C[C@]4(C)[C@H]3CC[C@@]21C,inhibition,Trypanosoma cruzi [1],inactive
CC(C)(O)CC[C@@H](O)[C@](C)(O)[C@H]1CC=C2C3=C/C(=N\OC(C)(C)C)[C@@H]4C[C@@H](O)[C@@H](OC(=O)/C=C/c5ccccc5)C[C@]4(C)[C@H]3CC[C@@]21C,inhibition at 5 µM,Trypanosoma cruzi [1],≥ 30%
COc1cc(/C=C/C(=O)O)cc(OC)c1OC [SINAPIC ACID METHYL ETHER],pIC50,Trypanosoma,< 3.22
CCCCCOC(=O)/C=C/c1ccc(O)cc1,pIC50,Trypanosoma cruzi [2],~5.30
CC(C)(O)CC[C@@H](OC(=O)/C=C/c1ccccc1)[C@](C)(O)[C@H]1CC[C@@]2(O)C3=CC(=O)[C@@H]4C[C@@H](OC(=O)/C=C/c5ccccc5)[C@@H](O)C[C@]4(C)[C@H]3CC[C@]12C,Activity,CHO,Non-toxic
CC(C)(O)CC[C@@H](OC(=O)/C=C/c1ccccc1)[C@](C)(O)[C@H]1CC=C2C3=C/C(=N\OC(C)(C)C)[C@@H]4C[C@@H](OC(=O)/C=C/c5ccccc5)[C@@H](OC(=O)/C=C/c5ccccc5)C[C@]4(C)[C@H]3CC[C@@]21C,inhibition at 5 µM,Trypanosoma cruzi [1],≥ 30%
CC(C)(O)CC[C@H]1OC(C)(C)O[C@]1(C)[C@H]1CC[C@@]2(O)C3=C/C(=N\OC(C)(C)C)[C@@H]4C[C@H]5OC(C)(C)O[C@H]5C[C@]4(C)[C@H]3CC[C@]12C,Activity,CHO,Non-toxic
CC(C)(O)CC[C@@H](OC(=O)/C=C/c1ccccc1)[C@](C)(O)[C@H]1CC[C@@]2(O)C3=CC(=O)[C@@H]4C[C@@H](O)[C@@H](OC(=O)/C=C/c5ccccc5)C[C@]4(C)[C@H]3CC[C@]12C,Activity,CHO,Non-toxic
CC(C)(O)CC[C@@H](O)[C@](C)(O)[C@H]1CC=C2C3=C/C(=N/OC(C)(C)C)[C@@H]4C[C@@H](O)[C@@H](OC(=O)/C=C/c5ccccc5)C[C@]4(C)[C@H]3CC[C@@]21C,inhibition at 5 µM,Trypanosoma cruzi [1],≥ 30%
COc1ccc(/C=C/C(=O)O)cc1 [4-METHOXYCINNAMIC ACID],pIC50,Trypanosoma,< 3.22
CC(C)(O)CC[C@@H](O)[C@](C)(O)[C@H]1CC=C2C3=C/C(=N/OC(C)(C)C)[C@@H]4C[C@@H](O)[C@@H](O)C[C@]4(C)[C@H]3CC[C@@]21C,inhibition,Trypanosoma cruzi [1],inactive
CC(C)(O)CC[C@@H](OC(=O)/C=C/c1ccccc1)[C@](C)(O)[C@H]1CC=C2C3=C/C(=N\OC(C)(C)C)[C@@H]4C[C@@H](O)[C@@H](OC(=O)/C=C/c5ccccc5)C[C@]4(C)[C@H]3CC[C@@]21C,inhibition at 5 µM,Trypanosoma cruzi [1],≥ 30%
COc1ccc(/C=C/C(=O)O)c(OC)c1,pIC50,Trypanosoma,< 3.22
